A short description of data set [1]: log P by HPLC on reversed-phase column (EEC Directive 79/831 Annex V.A8). It counts as physicochemical. The conditions noted are these: for logP: Table 1. As for the experimental part: In table 1, the log P values were determined in accordance with EEC Directive 79/831 Annex V.A8 by HPLC (High Performance Liquid Chromatography) on a reversed-phase column (C 18), using the method described below: Temperature: 40° C.; Mobile phases: 0.1% aqueous formic acid and acetonitrile; linear gradient from 10% acetonitrile to 90% acetonitrile. Calibration was carried out using unbranched alkan-2-ones (comprising 3 to 16 carbon atoms) with known log P values (determination of the log P values by the retention times using linear interpolation between two successive alkanones). lambda-max-values were determined using UV-spectra from 200 nm to 400 nm and the peak values of the chromatographic signals.

For the next data set, the system named is Pyrenophora teres. Nature of the data set: Example N: in vivo preventive test on Pyrenophora teres (barley). The following applies: table N; 500 ppm; barley plants; grading 14 days after contamination. As for the experimental part:
Example N: In Vivo Preventive Test on Pyrenophora teres (Barley) […] Barley plants (“Plaisant” variety), sown in starter cups on a 50/50 peat soil pozzolana substrate and grown at 22° C., are treated at the 1 leaf stage (10 cm height) by spraying with the active ingredient prepared as described above. Plants, used as controls, are treated with the mixture of acetone/tween/DMSO/water not containing the active material. After 24 hours, the plants are contaminated by spraying the leaves with an aqueous suspension of Pyrenophora teres spores (12 000 spores per mL). The spores are collected from a 12-day-old culture. The contaminated barley plants are incubated for 48 hours at 20° C. and at 100% relative humidity, and then for 12 days at 20° C. at 70-80% relative humidity. Grading (% of efficacy) is carried out 14 days after the contamination, in comparison with the control plants.

The subject of another data set is Uromyces appendiculatus. Nature of the data set: Example G: in vivo preventive test on Uromyces appendiculatus (bean rust). The conditions noted are these: bean plants; for protection: summary over doses of 500 ppm and 100 ppm; for Efficacy: table G2. As for the experimental part: Example G: In Vivo Preventive Test on Uromyces appendiculatus (Bean Rust) […] Bean plants (“Saxa” variety), sown in starter cups on a 50/50 peat soil pozzolana substrate and grown at 24° C., are treated at the 2 leaf stage (9 cm height) by spraying with the active ingredient prepared as described above. Plants, used as controls, are treated with the mixture of acetone/tween/DMSO/water not containing the active material. After 24 hours, the plants are contaminated by spraying the leaves with an aqueous suspension of Uromyces appendiculatus spores (150 000 spores per mL). The spores are collected from infected plants and are suspended in water containing 2.5 mL/L of Tween 80 at 10%. The contaminated bean plants are incubated for 24 hours at 20° C. and at 100% relative humidity, and then for 10 days at 20° C. and at 70-80% relative humidity. Grading (% of efficacy) is carried out 11 days after the contamination, in comparison with the control plants.

[2] abbreviates: HPLC C18, 40° C., 0.1% aqueous formic acid and acetonitrile gradient.
Where [3] appears, read: reversed-phase C18 HPLC column, Table 2 (amines IIf), HPLC C18, 40° C., 0.1% aqueous formic acid and acetonitrile gradient, read-out: logP.

Like-named read-outs stand apart in the source and are kept apart here.

The values below come from US9686985B2, “Fungicide N-cycloalkyl-N-bicyclicmethylene-carboxamide derivatives” (BAYER INTELLECTUAL PROPERTY GMBH, priority 2012, dated 2017).

`Cn1nc(C(F)F)c(C(=O)N(CC2(C)CCCc3ccccc32)C2CC2)c1F` (stereo not shown) [I.39] displayed a log partition coefficient (logP) in data set [1] (setting [2]) of 3.96.
Turning to `Clc1cc(Cl)c2c(c1)C(CNC1CC1)CC2` (stereo not shown) [IIf.9, N-[(4,6-dichloro-2,3-dihydro-1H-inden-1-yl)methyl]cyclopropanamine], in data set [1], the chromatographic logP turned out to be 1.38.
For `COc1cccc2c1CCCC2CNC1CC1` (stereo not shown) [IIf.14, N-[(5-methoxy-1,2,3,4-tetrahydronaphthalen-1-yl)methyl]cyclopropanamine], the chromatographic logP in data set [1] stood at 1.28.
Still for that read-out and setting: the result for `Fc1cccc2c1CCC2CNC1CC1` (stereo not shown) [IIf.4, N-[(4-fluoro-2,3-dihydro-1H-inden-1-yl)methyl]cyclopropanamine] reads 0.82.
In turn, `Cn1nc(C(F)F)c(C(=O)N(CC2CCc3cccc(Cl)c32)C2CC2)c1Cl` (stereo not shown) [I.15] yielded a lipophilicity (logP) in data set [1] (setting [2]) of 3.96. Also, the Efficacy in the data set with Pyrenophora teres is 71%.
In the case of `Cn1cc(C(=O)N(CC2CCc3c(F)cccc32)C2CC2)c(C(F)F)n1` (stereo not shown) [CMP4, N-cyclopropyl-3-(difluoromethyl)-N-[(4-fluoro-2,3-dihydro-1H-inden-1-yl)methyl]-1-methyl-1H-pyrazole-4-carboxamide, reference compound], in the data set on Uromyces appendiculatus, the protection entry is “high (at least 80%) to no protection”. Further, the results for the Efficacy in the data set on Uromyces appendiculatus (dose 100 ppm) and with Uromyces appendiculatus (dose 500 ppm) were 0% and 6%, respectively.
Regarding `Cc1ccc2c(c1)CCC2CN(C(=O)c1cn(C)nc1C(F)F)C1CC1` (stereo not shown) [CMP3, N-cyclopropyl-3-(difluoromethyl)-1-methyl-N-[(5-methyl-2,3-dihydro-1H-inden-1-yl)methyl]-1H-pyrazole-4-carboxamide, reference compound], the protection result in the data set with Uromyces appendiculatus was “high (at least 80%) to no protection”. The Efficacy in the data set with Uromyces appendiculatus (dose 100 ppm) worked out at 0%; in the data set with Uromyces appendiculatus (dose 500 ppm), 34%.
Consider `Clc1ccc2c(c1)CCC2CNC1CC1` (stereo not shown) [IIf.6, N-[(5-chloro-2,3-dihydro-1H-inden-1-yl)methyl]cyclopropanamine], for which the chromatographic logP in data set [1] came out at 1.11.
Turning to `Cn1cc(C(=O)N(CC2CC(C)(C)c3ccccc32)C2CC2)c(C(F)F)n1` (stereo not shown) [CMP5, N-cyclopropyl-3-(difluoromethyl)-N-[(3,3-dimethyl-2,3-dihydro-1H-inden-1-yl)methyl]-1-methyl-1H-pyrazole-4-carboxamide, reference compound], in the data set with Uromyces appendiculatus, the protection entry was “high (at least 80%) to no protection”. Moreover, the Efficacy with Uromyces appendiculatus (dose 100 ppm) was found to be 31%.
`Cn1cc(C(=O)N(CC2CCc3cc(Cl)ccc32)C2CC2)c(C(F)F)n1` (stereo not shown) [CMP6, N-[(5-chloro-2,3-dihydro-1H-inden-1-yl)methyl]-N-cyclopropyl-3-(difluoromethyl)-1-methyl-1H-pyrazole-4-carboxamide, reference compound]: in the data set with Uromyces appendiculatus, the protection entry was “high (at least 80%) to no protection”. Moreover, the results for the Efficacy in the data set with Uromyces appendiculatus (dose 100 ppm) and with Uromyces appendiculatus (dose 500 ppm) were 0% and 19%, respectively.
For `Clc1ccc2c(c1)C(CNC1CC1)CCS2` (stereo not shown) [IIf.19, N-[(6-chloro-3,4-dihydro-2H-thiochromen-4-yl)methyl]cyclopropanamine], in data set [1] (setting [3]), the chromatographic logP was found to be 1.26.
In data set [1] (setting [2]), `COc1cccc2c1CCCC2CN(C(=O)c1c(C(F)F)nn(C)c1F)C1CC1C` (stereo not shown) [I.38] registered a logP of 4.06.
In turn, `FC(F)(F)c1ccc2c(c1)C(CNC1CC1)CC2` (stereo not shown) [IIf.8, N-{[6-(trifluoromethyl)-2,3-dihydro-1H-inden-1-yl]methyl}cyclopropanamine] returned a chromatographic logP in data set [1] of 1.25.
The same measure, in the same setting: the result for `Cc1ccc2c(c1)CCC2CNC1CC1` (stereo not shown) [IIf.3, N-[(5-methyl-2,3-dihydro-1H-inden-1-yl)methyl]cyclopropanamine] reads 0.95.
For `Clc1cccc2c1C(CNC1CC1)CC2` (stereo not shown) [IIf.7, N-[(7-chloro-2,3-dihydro-1H-inden-1-yl)methyl]cyclopropanamine], the chromatographic logP in data set [1] came to 0.95.
Still for that read-out and setting: the result for `CC1CCC(CNC2CC2)c2ccccc21` (stereo not shown) [IIf.12, N-[(4-methyl-1,2,3,4-tetrahydronaphthalen-1-yl)methyl]cyclopropanamine] reads 1.22.
In data set [1] (setting [2]), `Cn1nc(C(F)F)c(C(=O)N(CC2CCc3cccc(Br)c32)C2CC2)c1Cl` (stereo not shown) [I.22] gave a logP of 4.08.
For `Cc1cc(C)c2c(c1)C(CN(C(=O)c1c(C(F)F)nn(C)c1F)C1CC1)CCC2` (stereo not shown) [I.37, N-cyclopropyl-3-(difluoromethyl)-N-[(5,7-dimethyl-1,2,3,4-tetrahydronaphthalen-1-yl)methyl]-5-fluoro-1-methyl-1H-pyrazole-4-carboxamide], in data set [1], the chromatographic logP worked out at 4.44.
As for `Cn1cc(C(=O)N(CC2CCc3cccc(Cl)c32)C2CC2)c(C(F)F)n1` (stereo not shown) [CMP7, N-[(7-chloro-2,3-dihydro-1H-inden-1-yl)methyl]-N-cyclopropyl-3-(difluoromethyl)-1-methyl-1H-pyrazole-4-carboxamide, reference compound], the protection result with Uromyces appendiculatus is reported as “high (at least 80%) to no protection”. For the same compound, the Efficacy in the data set with Uromyces appendiculatus (dose 100 ppm) and in the data set on Uromyces appendiculatus (dose 500 ppm) was 0% each time.
For the compound `Cc1cccc2c1CCC2CN(C(=O)c1cn(C)nc1C(F)F)C1CC1` (stereo not shown) [CMP2, N-cyclopropyl-3-(difluoromethyl)-1-methyl-N-[(4-methyl-2,3-dihydro-1H-inden-1-yl)methyl]-1H-pyrazole-4-carboxamide, reference compound], in the data set with Uromyces appendiculatus, the protection result was “high (at least 80%) to no protection”. The figures for the Efficacy in the data set on Uromyces appendiculatus (dose 100 ppm) and with Uromyces appendiculatus (dose 500 ppm) were 0% and 80%, respectively.
As for `Cn1nc(C(F)F)c(C(=O)N(CC2CCOc3ccccc32)C2CC2)c1Cl` (stereo not shown) [I.32], the log partition coefficient (logP) in data set [1] (setting [2]) stood at 3.17. Besides, in the data set on Pyrenophora teres, the Efficacy was determined as 88%.
In data set [1], `Cc1cc(C)c2c(c1)C(CNC1CC1)CCC2` (stereo not shown) [IIf.13, N-[(5,7-dimethyl-1,2,3,4-tetrahydronaphthalen-1-yl)methyl]cyclopropanamine] showed a chromatographic logP of 1.75.
The compound `Clc1cccc2c1C(CNC1CC1)CCC2` (stereo not shown) [IIf.15, N-[(8-chloro-1,2,3,4-tetrahydronaphthalen-1-yl)methyl]cyclopropanamine] yielded a chromatographic logP in data set [1] of 1.57.
Consider `Cn1cc(C(=O)N(CC2CCc3ccccc32)C2CC2)c(C(F)F)n1` (stereo not shown) [CMP1, N-cyclopropyl-3-(difluoromethyl)-N-(2,3-dihydro-1H-inden-1-ylmethyl)-1-methyl-1H-pyrazole-4-carboxamide, reference compound], for which the protection entry with Uromyces appendiculatus is “high (at least 80%) to no protection”. Further, the Efficacy in the data set with Uromyces appendiculatus (dose 100 ppm) stood at 0%; with Uromyces appendiculatus (dose 500 ppm), 13%.
With `CC1(C)CC(CNC2CC2)c2ccccc21` (stereo not shown) [IIf.5, N-[(3,3-dimethyl-2,3-dihydro-1H-inden-1-yl)methyl]cyclopropanamine], the chromatographic logP in data set [1] amounted to 1.12.
Same read-out and setting: in the case of `c1ccc2c(c1)CCCCC2CNC1CC1` (stereo not shown) [IIf.16, N-(6,7,8,9-tetrahydro-5H-benzo[7]annulen-5-ylmethyl)cyclopropanamine] it was 1.17; in that of `CC1(CNC2CC2)CCCc2ccccc21` (stereo not shown) [IIf.11, N-[(1-methyl-1,2,3,4-tetrahydronaphthalen-1-yl)methyl]cyclopropanamine], 1.1.
Still for that read-out and setting: the result for `c1ccc2c(c1)CCC2CNC1CC1` (stereo not shown) [IIf.1, N-(2,3-dihydro-1H-inden-1-ylmethyl)cyclopropanamine] reads 0.75.
`c1ccc2c(c1)CSCC2CNC1CC1` (stereo not shown) [IIf.17, N-(3,4-dihydro-1H-isothiochromen-4-ylmethyl)cyclopropanamine]: the chromatographic logP in data set [1] (setting [3]) came to 0.86.
In data set [1], `Cc1cccc2c1CCC2CNC1CC1` (stereo not shown) [IIf.2, N-[(4-methyl-2,3-dihydro-1H-inden-1-yl)methyl]cyclopropanamine] had a chromatographic logP of 1.
In turn, `Cn1nc(C(F)F)c(C(=O)N(CC2CCCc3cccc(Cl)c32)C2CC2)c1Cl` (stereo not shown) [I.29] had a logP in data set [1] (setting [2]) of 4.26. Besides, the Efficacy in the data set with Pyrenophora teres was found to be 88%.
In data set [1], `Brc1cccc2c1C(CNC1CC1)CC2` (stereo not shown) [IIf.10, N-[(7-bromo-2,3-dihydro-1H-inden-1-yl)methyl]cyclopropanamine] came in with a chromatographic logP of 1.08.
As for `Fc1ccc2c(c1)C(CNC1CC1)CCS2` (stereo not shown) [IIf.18, N-[(6-fluoro-3,4-dihydro-2H-thiochromen-4-yl)methyl]cyclopropanamine], the chromatographic logP in data set [1] (setting [3]) came to 1.05.
